Results taken from US20250345446A1 (Draupnir Bio ApS, priority 2022, published 2025).
Like-named read-outs stand apart in the source and are kept apart here. Residues, ends and D or L forms follow the SMILES beside them. No end group written: not given here. *: point of attachment. Biotin = O=C1N[C@H]2[C@H](CS[C@H]2CCCCC(=O)*)N1

Target: T1, soluble ectodomain of sortilin-6his (Homo sapiens, UniProt Q99523, V650M)
T1 construct: the soluble ectodomain of sortilin-6his is measured by microscale thermophoresis (MST)
Assay: MST binding to soluble ectodomain of sortilin-6his
Details: MST, read-out: KD score, binding to sortilin (Kd)

[1] = Table 3, monofunctional peptides
[2] = Table 1, biotin-linker-peptide bifunctional compounds

Compound	Kd [1]	Kd [2]
CC(C)C[C@H](NC(=O)[C@H](CC(C)C)NC(=O)[C@H](CCC(N)=O)NC(=O)[C@@H](N)Cc1ccc(O)cc1)C(=O)O [compound 29, YQLL-OH] (H-YQLL-OH)	25 to 250 nM	
CC(C)C[C@H](NC(=O)[C@H](Cc1ccc(O)cc1)NC(=O)[C@H](CCC(N)=O)NC(=O)[C@@H](N)CCCNC(=N)N)C(=O)O [compound 39] (H-RQYL-OH)	250 to 2500 nM	
CC(C)C[C@H](NC(=O)[C@H](CC(C)C)NC(=O)[C@H](CCC(N)=O)NC(=O)[C@@H](N)Cc1c[nH]cn1)C(=O)O [compound 41] (H-HQLL-OH; N-terminus assumed)	> 2500 nM	
CC[C@H](C)[C@H](N)C(=O)N[C@@H](CCC(N)=O)C(=O)N[C@@H](CC(C)C)C(=O)N[C@@H](CC(C)C)C(=O)O [compound 42] (H-IQLL-OH; N-terminus assumed)	250 to 2500 nM	
CC(C)C[C@H](NC(=O)[C@H](Cc1ccc(O)cc1)NC(=O)[C@H](Cc1ccc(O)cc1)NC(=O)[C@@H](N)Cc1ccccc1)C(=O)O [compound 43] (H-FYYL-OH; N-terminus assumed)	> 2500 nM	
CC(C)C[C@H](NC(=O)[C@H](CCCNC(=N)N)NC(=O)[C@H](CCCNC(=N)N)NC(=O)[C@H](CCCCN)NC(=O)[C@H](CCCCN)NC(=O)[C@H](Cc1ccccc1)NC(=O)[C@H](CC(C)C)NC(=O)[C@@H](N)CCCNC(=N)N)C(=O)N[C@@H](CCCNC(=N)N)C(=O)N[C@@H](CO)C(=O)N1CCC[C@H]1C(=O)N[C@@H](CCCNC(=N)N)C(=O)N[C@H](C(=O)N[C@@H](CC(C)C)C(=O)N[C@@H](Cc1ccccc1)C(N)=O)C(C)C [compound 47]	> 2500 nM	
CC(C)C[C@H](N)C(=O)N[C@@H](Cc1ccc(O)cc1)C(=O)N[C@@H](CCC(=O)O)C(=O)N[C@@H](CC(N)=O)C(N)=O [compound 64] (H-LYEN-NH2; N-terminus assumed)	> 2500 nM	
CC(C)C[C@H](NC(=O)[C@H](CC(C)C)NC(=O)[C@H](CCC(N)=O)NC(=O)[C@H](Cc1ccccc1)NC(=O)CNC(=O)CNC(=O)CNC(=O)CNC(=O)[C@H](CO)NC(=O)CNC(=O)CNC(=O)CCCC[C@@H]1SC[C@@H]2NC(=O)N[C@@H]21)C(=O)O [compound 143] (Biotin-GGSGGGGFQLL-OH)		< 100 nM
CC(C)C[C@H](NC(=O)[C@H](CC(C)C)NC(=O)[C@H](CCC(N)=O)NC(=O)[C@H](Cc1ccccc1)NC(=O)CNC(=O)CNC(=O)[C@H](CO)NC(=O)CNC(=O)CNC(=O)CCCC[C@@H]1SC[C@@H]2NC(=O)N[C@@H]21)C(=O)O [compound 144] (Biotin-GGSGGFQLL-OH)		< 100 nM
CC(C)C[C@H](NC(=O)[C@H](CC(C)C)NC(=O)[C@H](CCC(N)=O)NC(=O)[C@H](CCCNC(=N)N)NC(=O)CNC(=O)CNC(=O)CNC(=O)CNC(=O)[C@H](CO)NC(=O)CNC(=O)CNC(=O)CCCC[C@@H]1SC[C@@H]2NC(=O)N[C@@H]21)C(=O)O [compound 150] (Biotin-GGSGGGGRQLL-OH)		< 100 nM
CC(C)C[C@H](NC(=O)[C@H](CC(C)C)NC(=O)[C@H](CCC(N)=O)NC(=O)[C@H](CCCNC(=N)N)NC(=O)[C@H](CO)NC(=O)CNC(=O)CNC(=O)CCCC[C@@H]1SC[C@@H]2NC(=O)N[C@@H]21)C(=O)O [compound 152] (Biotin-GGSRQLL-OH)		100 to 2000 nM
CC(C)C[C@H](NC(=O)[C@H](CC(C)C)NC(=O)[C@H](CCC(N)=O)NC(=O)[C@H](CCCNC(=N)N)NC(=O)CNC(=O)CNC(=O)CCCC[C@@H]1SC[C@@H]2NC(=O)N[C@@H]21)C(=O)O [compound 153] (Biotin-GGRQLL-OH)		< 100 nM
CC(C)C[C@H](NC(=O)[C@H](CC(C)C)NC(=O)[C@H](CCC(N)=O)NC(=O)[C@H](CCCNC(=N)N)NC(=O)CCCC[C@@H]1SC[C@@H]2NC(=O)N[C@@H]21)C(=O)O [compound 154] (Biotin-RQLL-OH)		< 100 nM
CC[C@H](C)[C@H](NC(=O)[C@H](CC(C)C)NC(=O)[C@H](CCC(N)=O)NC(=O)[C@@H](N)CCCNC(=N)N)C(=O)O [compound 163] (H-RQLI-OH)	> 2500 nM	
CC(C)C[C@H](NC(=O)[C@H](CCC(N)=O)NC(=O)[C@@H](N)CCCNC(=N)N)C(=O)N[C@@H](Cc1ccccc1)C(=O)O [compound 164] (H-RQLF-OH)	> 2500 nM	
CSCC[C@H](NC(=O)[C@H](CC(C)C)NC(=O)[C@H](CCC(N)=O)NC(=O)[C@@H](N)CCCNC(=N)N)C(=O)O [compound 165] (H-RQLM-OH)	> 2500 nM	
CC(C)C[C@H](NC(=O)[C@H](CCC(N)=O)NC(=O)[C@@H](N)CCCNC(=N)N)C(=O)O [compound 166] (H-Arg-Gln-Leu-OH)	> 2500 nM	
CC(C)C[C@H](NC(=O)[C@H](CCCNC(=N)N)NC(=O)[C@H](C)NC(=O)[C@H](C)N)C(=O)O [compound 196, AARL-OH] (H-AARL-OH)	250 to 2500 nM	
H-GVSWGLR-OH [compound 52]	> 2500 nM	
H-ITVDPRLFKKRRLRSPRVLF-NH2 [compound 48]	> 2500 nM	

Results, then the compound that gave them:

Kd [1]	Kd [2]	Compound
25 to 250 nM		CC(C)C[C@H](NC(=O)[C@H](CC(C)C)NC(=O)[C@H](Cc1ccc(O)cc1)NC(=O)[C@@H](N)Cc1ccccc1)C(=O)O [compound 28, FYLL-OH] (H-FYLL-OH)
250 to 2500 nM		CC[C@H](C)[C@H](NC(=O)[C@H](Cc1ccc(O)cc1)NC(=O)[C@@H](N)Cc1ccccc1)C(=O)N[C@@H](CC(C)C)C(=O)O [compound 31] (H-FYIL-OH)
250 to 2500 nM		CC[C@H](C)[C@H](NC(=O)[C@H](Cc1ccc(O)cc1)NC(=O)[C@@H](N)CCCNC(=N)N)C(=O)N[C@@H](CC(C)C)C(=O)O [compound 32] (H-RYIL-OH)
250 to 2500 nM		CC(C)C[C@H](NC(=O)[C@H](CC(C)C)NC(=O)[C@H](Cc1ccc(O)cc1)NC(=O)[C@@H]1CCCN1)C(=O)O [compound 33] (H-PYLL-OH)
25 to 250 nM		CC(C)C[C@H](NC(=O)[C@H](Cc1ccc(O)cc1)NC(=O)[C@H](Cc1ccc(O)cc1)NC(=O)[C@@H](N)CCCNC(=N)N)C(=O)O [compound 36] (H-RYYL-OH)
250 to 2500 nM		CC(C)C[C@H](NC(=O)[C@H](Cc1ccccc1)NC(=O)[C@H](Cc1ccc(O)cc1)NC(=O)[C@@H](N)CCCNC(=N)N)C(=O)O [compound 37] (H-RYFL-OH)
250 to 2500 nM		CC(C)C[C@H](NC(=O)[C@H](Cc1ccccc1)NC(=O)[C@H](CCC(N)=O)NC(=O)[C@@H](N)CCCNC(=N)N)C(=O)O [compound 38] (H-RQFL-OH)
< 25 nM		CC(C)C[C@H](NC(=O)[C@H](CC(C)C)NC(=O)[C@H](CCC(N)=O)NC(=O)[C@H](CCCNC(=N)N)NC(=O)[C@H](CC(C)C)NC(=O)[C@H](C)NC(=O)[C@@H]1CCCN1C(=O)[C@H](CC(=O)O)NC(=O)[C@H](CCCNC(=N)N)NC(=O)[C@H](CC(C)C)NC(=O)[C@@H]1CCCN1C(=O)[C@H](C)NC(=O)[C@H](CC(=O)O)NC(=O)[C@H](Cc1c[nH]c2ccccc12)NC(=O)[C@H](CCCNC(=N)N)NC(=O)[C@@H]1CCCN1C(=O)[C@H](C)NC(=O)[C@H](CCC(=O)O)NC(=O)[C@@H](N)CCCNC(=N)N)C(=O)O [compound 53]
25 to 250 nM		CC[C@H](C)[C@H](NC(=O)[C@H](Cc1ccc(O)cc1)NC(=O)[C@@H]1CCCN1C(=O)[C@H](CCCNC(=N)N)NC(=O)[C@H](CCCNC(=N)N)NC(=O)[C@@H]1CCCN1C(=O)[C@H](CCCCN)NC(=O)[C@H](CC(N)=O)NC(=O)[C@H](CCC(=O)O)NC(=O)[C@H](Cc1ccc(O)cc1)NC(=O)[C@@H](N)CC(C)C)C(=O)N[C@@H](CC(C)C)C(=O)O [compound 56]
25 to 250 nM		APLRDPAPRQLL-OH [compound 57]
25 to 250 nM		GGSGGGGSGGGGSGGRQLL-OH [compound 167]
< 25 nM		H-WSGPIGVSWGLRAAAAGFQLL-OH [compound 179]
